The source of these data is ChEMBL document CHEMBL4257468, “Synthesis and biological evaluation of rapamycin-derived, next generation small molecules” (Medchemcomm, 2018).

The Ki is the dissociation constant of the complex between target and ligand, obtained from inhibition or displacement. By IC50 is commonly meant the concentration at which inhibition is half-maximal.

Data set [1] concerns Saccharomyces cerevisiae. Briefly: Inhibition of FKBP12 in yeast assessed as reduction in cell proliferation.
The target in data set [2] is T1, Peptidyl-prolyl cis-trans isomerase FKBP1A (Homo sapiens, UniProt P62942). Kind of data set: Inhibition of recombinant human FKBP12 expressed in Escherichia coli using succinyl-Ala-Phe-Pro-Phe-4-nitroanilide as substrate measured after 5 to 10 mins by spectrophotometric method.
Data set [3] in a line: Apparent terminal half life in Sprague-Dawley rat at 2.5 mg/kg, iv administered as bolus dose by mass spectrometric analysis. The format is ADME, organism-based. The settings on record: in vivo, read-out: betat1/2(app) (converted).
Data set [4] addresses T1, Peptidyl-prolyl cis-trans isomerase FKBP1A. Briefly: Inhibition of [3H]-FK506 binding to recombinant human His6-tagged FKBP12 pretreated for 10 mins followed by [3H]-FK506 addition and measured after 1.5 hrs by microbeta scintillation counting method.
Data set [5] can be described thus: Half life in human administered as oral dose. The following applies: in vivo. The format is ADME, organism-based.

T1 sequence (P62942 whole entry): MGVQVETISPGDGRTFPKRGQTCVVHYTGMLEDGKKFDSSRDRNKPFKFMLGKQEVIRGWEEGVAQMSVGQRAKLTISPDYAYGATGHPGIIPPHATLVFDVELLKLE

Consider `CO[C@@H]1C[C@@H]2CC[C@@H](C)[C@@](O)(O2)C(=O)C(=O)N2CCCC[C@H]2C(=O)O[C@H]([C@H](C)C[C@@H]2CC[C@@H](O)[C@H](OC)C2)CC(=O)[C@H](C)/C=C(\C)[C@@H](O)[C@@H](OC)C(=O)[C@H](C)C[C@H](C)/C=C/C=C/C=C/1C`, for which, in data set [1], the IC12 was found to be 20 nM. Still for that read-out and setting: the result for `CO[C@@H]1C[C@H](C[C@@H](C)[C@@H]2CC(=O)[C@H](C)/C=C(\C)[C@@H](O)[C@@H](OC)C(=O)[C@H](C)C[C@H](C)/C=C/C=C/C=C(\C)[C@H](SC)C[C@@H]3CC[C@@H](C)[C@@](O)(O3)C(=O)C(=O)N3CCCC[C@H]3C(=O)O2)CC[C@H]1O` reads 4 nM. Take `COc1ccc([C@@H]2C[C@@H]3CC[C@@H](C)[C@@](O)(O3)C(=O)C(=O)N3CCCC[C@H]3C(=O)O[C@H]([C@H](C)C[C@@H]3CC[C@@H](O)[C@H](OC)C3)CC(=O)[C@H](C)/C=C(\C)[C@@H](O)[C@@H](OC)C(=O)[C@H](C)C[C@H](C)/C=C/C=C/C=C/2C)c(OC)c1`: the IC12 in data set [1] worked out at 400 nM. Moreover, the Ki in data set [2] was found to be 38 nM. Take `CO[C@H]1C[C@@H]2CC[C@@H](C)[C@@](O)(O2)C(=O)C(=O)N2CCCC[C@H]2C(=O)O[C@H]([C@H](C)C[C@@H]2CC[C@H](n3cnnn3)[C@H](OC)C2)CC(=O)[C@H](C)/C=C(\C)[C@@H](O)[C@@H](OC)C(=O)[C@H](C)C[C@H](C)/C=C/C=C/C=C/1C` [ZOTAROLIMUS]: in data set [3], the half-life was 9.4 h. With `COc1cc(OC)c([C@@H]2C[C@@H]3CC[C@@H](C)[C@@](O)(O3)C(=O)C(=O)N3CCCC[C@H]3C(=O)O[C@H]([C@H](C)C[C@@H]3CC[C@@H](O)[C@H](OC)C3)CC(=O)[C@H](C)/C=C(\C)[C@@H](O)[C@@H](OC)C(=O)[C@H](C)C[C@H](C)/C=C/C=C/C=C/2C)c(OC)c1`, the IC12 in data set [1] is over 1000 nM. Besides, the Ki in data set [2] worked out at 7 nM. As for `CO[C@H]1C[C@@H]2CC[C@@H](C)[C@@](O)(O2)C(=O)C(=O)N2CCSC[C@H]2C(=O)O[C@H]([C@H](C)C[C@@H]2CC[C@@H](O)[C@H](OC)C2)CC(=O)[C@H](C)/C=C(\C)[C@@H](O)[C@@H](OC)C(=O)[C@H](C)C[C@H](C)/C=C/C=C/C=C/1C`, the IC50 in data set [4] came to 53.6 nM.

`CCO[C@H]1C[C@@H]2CC[C@@H](C)[C@@](O)(O2)C(=O)C(=O)N2CCCC[C@H]2C(=O)O[C@H]([C@H](C)C[C@@H]2CC[C@@H](O)[C@H](OC)C2)CC(=O)[C@H](C)/C=C(\C)[C@@H](O)[C@@H](OC)C(=O)[C@H](C)C[C@H](C)/C=C/C=C/C=C/1C`: the IC12 in data set [1] was determined as 10 nM. For the same compound, in data set [2], the Ki turned out to be 3.5 nM. On to `CO[C@@H]1C[C@H](C[C@@H](C)[C@@H]2CC(=O)[C@H](C)/C=C(\C)[C@@H](O)[C@@H](OC)C(=O)[C@H](C)C[C@H](C)/C=C/C=C/C=C(\C)[C@@H](SC)C[C@@H]3CC[C@@H](C)[C@@](O)(O3)C(=O)C(=O)N3CCCC[C@H]3C(=O)O2)CC[C@H]1O`, for which the IC12 in data set [1] turned out to be 4 nM. As for `CO[C@@H]1C[C@H](C[C@@H](C)[C@@H]2CC(=O)[C@H](C)/C=C(\C)[C@@H](O)[C@@H](OC)C(=O)[C@H](C)C[C@H](C)/C=C/C=C/C=C(\C)[C@@H](c3ccc[nH]3)C[C@@H]3CC[C@@H](C)[C@@](O)(O3)C(=O)C(=O)N3CCCC[C@H]3C(=O)O2)CC[C@H]1O`, the IC12 in data set [1] amounted to 28 nM. Moreover, the Ki in data set [2] was determined as 10 nM. For `CO[C@@H]1C[C@H](C[C@@H](C)[C@@H]2CC(=O)[C@H](C)/C=C(\C)[C@@H](O)[C@@H](OC)C(=O)[C@H](C)C[C@H](C)/C=C/C=C/C=C(\C)[C@H](c3ccco3)C[C@@H]3CC[C@@H](C)[C@@](O)(O3)C(=O)C(=O)N3CCCC[C@H]3C(=O)O2)CC[C@H]1O` the same measures were 3 nM and 6 nM. For the compound `COc1ccc([C@H]2C[C@@H]3CC[C@@H](C)[C@@](O)(O3)C(=O)C(=O)N3CCCC[C@H]3C(=O)O[C@H]([C@H](C)C[C@@H]3CC[C@@H](O)[C@H](OC)C3)CC(=O)[C@H](C)/C=C(\C)[C@@H](O)[C@@H](OC)C(=O)[C@H](C)C[C@H](C)/C=C/C=C/C=C/2C)c(OC)c1`, the IC12 in data set [1] turned out to be 225 nM. Moreover, the inhibitory constant (Ki) in data set [2] is 9 nM. As for `CO[C@@H]1C[C@H](C[C@@H](C)[C@@H]2CC(=O)[C@H](C)/C=C(\C)[C@@H](O)[C@@H](OC)C(=O)[C@H](C)C[C@H](C)/C=C/C=C/C=C(\C)[C@@H](c3ccco3)C[C@@H]3CC[C@@H](C)[C@@](O)(O3)C(=O)C(=O)N3CCCC[C@H]3C(=O)O2)CC[C@H]1O`, in data set [1], the IC12 came out at 12.5 nM. Also, the Ki in data set [2] worked out at 3 nM. As to `CO[C@@H]1C[C@H](C[C@@H](C)[C@@H]2CC(=O)[C@H](C)/C=C(\C)[C@@H](O)[C@@H](OC)C(=O)[C@H](C)C[C@H](C)/C=C/C=C/C=C(\C)CC[C@@H]3CC[C@@H](C)[C@@](O)(O3)C(=O)C(=O)N3CCCC[C@H]3C(=O)O2)CC[C@H]1O`, the IC12 in data set [1] was 8 nM. On to `CO[C@@H]1C[C@H](C[C@@H](C)[C@@H]2CC(=O)[C@H](C)/C=C(\C)[C@@H](O)[C@@H](OC)C(=O)[C@H](C)C[C@H](C)/C=C/C=C/C=C(\C)[C@@H](OCc3ccc(Cl)cc3)C[C@@H]3CC[C@@H](C)[C@@](O)(O3)C(=O)C(=O)N3CCCC[C@H]3C(=O)O2)CC[C@H]1O`, for which, in data set [1], the IC12 was 6 nM. In data set [2], the Ki stood at 1 nM.

As to `CO[C@@H]1C[C@H](C[C@@H](C)[C@@H]2CC(=O)[C@H](C)/C=C(\C)[C@@H](O)[C@@H](OC)C(=O)[C@H](C)C[C@H](C)/C=C/C=C/C=C(\C)[C@H](c3ccc[nH]3)C[C@@H]3CC[C@@H](C)[C@@](O)(O3)C(=O)C(=O)N3CCCC[C@H]3C(=O)O2)CC[C@H]1O`, the IC12 in data set [1] worked out at 28 nM. In data set [2], the Ki stood at 1.5 nM. For `COC(=O)N[C@H]1C[C@@H]2CC[C@@H](C)[C@@](O)(O2)C(=O)C(=O)N2CCCC[C@H]2C(=O)O[C@H]([C@H](C)C[C@@H]2CC[C@@H](O)[C@H](OC)C2)CC(=O)[C@H](C)/C=C(\C)[C@@H](O)[C@@H](OC)C(=O)[C@H](C)C[C@H](C)/C=C/C=C/C=C/1C` the same measures were 170 nM and 4.5 nM. Consider `CO[C@@H]1C[C@H](C[C@@H](C)[C@@H]2CC(=O)[C@H](C)/C=C(\C)[C@@H](O)[C@@H](OC)C(=O)[C@H](C)C[C@H](C)/C=C/C=C/C=C(\C)C(=O)C[C@@H]3CC[C@@H](C)[C@@](O)(O3)C(=O)C(=O)N3CCCC[C@H]3C(=O)O2)CC[C@H]1O`, for which, in data set [1], the IC12 is 210 nM. Also, the Ki in data set [2] was determined as 29 nM.

In the case of `COC(=O)N[C@@H]1C[C@@H]2CC[C@@H](C)[C@@](O)(O2)C(=O)C(=O)N2CCCC[C@H]2C(=O)O[C@H]([C@H](C)C[C@@H]2CC[C@@H](O)[C@H](OC)C2)CC(=O)[C@H](C)/C=C(\C)[C@@H](O)[C@@H](OC)C(=O)[C@H](C)C[C@H](C)/C=C/C=C/C=C/1C`, in data set [1], the IC12 was found to be 220 nM. The Ki in data set [2] is 3.7 nM. `CO[C@@H]1C[C@H](C[C@@H](C)[C@@H]2CC(=O)[C@H](C)/C=C(\C)[C@@H](O)[C@@H](OC)C(=O)[C@H](C)C[C@H](C)/C=C/C=C/C=C(\C)[C@@H](OCc3cccc([N+](=O)[O-])c3)C[C@@H]3CC[C@@H](C)[C@@](O)(O3)C(=O)C(=O)N3CCCC[C@H]3C(=O)O2)CC[C@H]1O`: the IC12 in data set [1] was found to be 20 nM. For the same compound, the Ki in data set [2] stood at 7 nM. Turning to `CO[C@H]1C[C@@H]2CC[C@@H](C)[C@@](O)(O2)C(=O)C(=O)N2CCCC[C@H]2C(=O)O[C@H]([C@H](C)C[C@@H]2CC[C@@H](O)[C@H](OC)C2)CC(=O)[C@H](C)/C=C(\C)[C@@H](O)[C@@H](OC)C(=O)[C@H](C)C[C@H](C)/C=C/C=C/C=C/1C` [SIROLIMUS], in data set [1], the IC12 worked out at 7 nM. Further, the half-life was 62 to 82 h in data set [5] and 14 h in data set [3]. Regarding `CO[C@@H]1C[C@H](C[C@@H](C)[C@@H]2CC(=O)[C@H](C)/C=C(\C)[C@@H](O)[C@@H](OC)C(=O)[C@H](C)C[C@H](C)/C=C/C=C/C=C(\C)[C@@H](OCc3ccccc3)C[C@@H]3CC[C@@H](C)[C@@](O)(O3)C(=O)C(=O)N3CCCC[C@H]3C(=O)O2)CC[C@H]1O`, the IC12 in data set [1] is 6 nM. The Ki in data set [2] worked out at 5 nM.
